# Data published in ChEMBL document CHEMBL4014300, “Synthesis and biological evaluation of novel quinazoline-sulfonamides as anti-cancer agents” (Bioorg Med Chem Lett, 2017).
# Active and inactive are the calls of the source. The calls are words filed in the database; no cut-off is given here.
# Columns and labels:
# THP-1 [1] = test: Cytotoxicity against human THP1 cells assessed as reduction in cell viability after 24 hrs by MTT assay; assay type: functional, cell-based; settings: THP-1, 24 h
# SK-OV-3 [2] = test: Cytotoxicity against human SKOV3 cells assessed as reduction in cell viability after 24 hrs by MTT assay; assay type: functional, cell-based; settings: SK-OV-3, 24 h
# U-937 [3] = test: Cytotoxicity against human U937 cells assessed as reduction in cell viability after 24 hrs by MTT assay; assay type: functional, cell-based; settings: U-937, 24 h
# DU-145 [4] = test: Cytotoxicity against human DU145 cells assessed as reduction in cell viability after 24 hrs by MTT assay; assay type: functional, cell-based; settings: DU-145, 24 h
# COLO 205 [5] = test: Cytotoxicity against human COLO205 cells assessed as reduction in cell viability after 24 hrs by MTT assay; assay type: functional, cell-based; settings: COLO 205, 24 h
# FHC [6] = test: Cytotoxicity against human FHC cells assessed as reduction in cell viability after 24 hrs by MTT assay; assay type: cell-based
# FHC [7] = test: Cytotoxicity against human FHC cells assessed as reduction in cell viability at 100 ug/ml after 24 hrs by MTT assay; assay type: cell-based
# SK-OV-3 [8] = test: Cytotoxicity against human SKOV3 cells assessed as reduction in cell viability at 100 ug/ml after 24 hrs by MTT assay; assay type: functional, cell-based
# U-937 [9] = test: Cytotoxicity against human U937 cells assessed as reduction in cell viability at 100 ug/ml after 24 hrs by MTT assay; assay type: functional, cell-based
# THP-1 [10] = test: Cytotoxicity against human THP1 cells assessed as reduction in cell viability at 100 ug/ml after 24 hrs by MTT assay; assay type: functional, cell-based
# DU-145 [11] = test: Cytotoxicity against human DU145 cells assessed as reduction in cell viability at 100 ug/ml after 24 hrs by MTT assay; assay type: functional, cell-based
# COLO 205 [12] = test: Cytotoxicity against human COLO205 cells assessed as reduction in cell viability at 100 ug/ml after 24 hrs by MTT assay; assay type: functional, cell-based
Structure (SMILES),IC50 (THP-1 [1]) [µg/mL],IC50 (SK-OV-3 [2]) [µg/mL],IC50 (U-937 [3]) [µg/mL],IC50 (DU-145 [4]) [µg/mL],IC50 (COLO 205 [5]) [µg/mL],IC50 (FHC [6]) [µg/mL],Activity (FHC [7]),Activity (SK-OV-3 [8]),Activity (U-937 [9]),Activity (THP-1 [10]),Activity (DU-145 [11]),Activity (COLO 205 [12])
COc1cc2nc(N3CCOCC3)nc(NS(=O)(=O)C3CC3)c2cc1OC,13.8,32.1,8.09,25.1,49.1,73.2,–,–,–,–,–,–
COc1cc2nc(N3CCCC3)nc(NS(=O)(=O)c3ccc(C)cc3)c2cc1OC,7.06,20,8.61,14.1,24.1,48.1,–,–,–,–,–,–
COc1cc2nc(N3CCOCC3)nc(NS(=O)(=O)c3ccc(C)cc3)c2cc1OC,92.5,–,–,51.3,44.2,–,Non-Toxic,inactive,inactive,–,–,–
COc1cc2nc(Cl)nc(NS(=O)(=O)Cc3ccccc3)c2cc1OC,–,–,91.7,–,–,–,Non-Toxic,inactive,–,inactive,inactive,inactive
COc1cc2nc(N3CCCC3)nc(NS(=O)(=O)c3cccs3)c2cc1OC,–,–,–,–,–,–,Non-Toxic,inactive,inactive,inactive,inactive,inactive
COc1cc2nc(Cl)nc(NS(=O)(=O)c3cccc4ccccc34)c2cc1OC,82.4,95.3,35.3,63.6,–,–,Non-Toxic,–,–,–,–,inactive
COc1cc2nc(Cl)nc(NS(C)(=O)=O)c2cc1OC,99.7,88,–,–,–,88.1,–,–,inactive,–,inactive,inactive
COc1cc2nc(N3CCOCC3)nc(NS(=O)(=O)c3cccc4c3OCO4)c2cc1OC,71.6,–,–,–,–,–,Non-Toxic,inactive,inactive,–,inactive,inactive
COc1cc2nc(Cl)nc(NS(=O)(=O)c3ccccc3)c2cc1OC,8.17,9.23,6.06,12.3,19,73,–,–,–,–,–,–
COc1cc2nc(Cl)nc(NS(=O)(=O)c3cccc(C(F)(F)F)c3)c2cc1OC,36.4,32.3,59,23.1,99,–,Non-Toxic,–,–,–,–,–
COc1cc2nc(Cl)nc(NS(=O)(=O)c3cccs3)c2cc1OC,11.2,19.1,10.1,16.4,27.5,98.7,–,–,–,–,–,–
COc1cc2nc(Cl)nc(NS(=O)(=O)Cc3cccc(I)c3)c2cc1OC,96.2,–,66.5,–,–,–,Non-Toxic,inactive,–,–,inactive,inactive
COc1ccc(S(=O)(=O)Nc2nc(Cl)nc3cc(OC)c(OC)cc23)cc1,–,–,–,–,–,–,Non-Toxic,inactive,inactive,inactive,inactive,inactive
COc1cc2nc(Cl)nc(NS(=O)(=O)c3cccc4c3OCO4)c2cc1OC,48.6,78.1,89.6,–,–,–,Non-Toxic,–,–,–,inactive,inactive
COc1cc2nc(N3CCOCC3)nc(NS(=O)(=O)c3cccc(C(F)(F)F)c3)c2cc1OC,38.8,50.5,28.7,45.8,61.8,–,Non-Toxic,–,–,–,–,–
COc1cc2nc(Cl)nc(NS(=O)(=O)c3ccc(C)cc3)c2cc1OC,33.5,–,39.9,44.2,91.3,–,Non-Toxic,inactive,–,–,–,–
COc1ccc(S(=O)(=O)Nc2nc(Cl)nc3cc(OC)c(OC)cc23)cc1C,79,68.1,41.1,39.5,57,–,Non-Toxic,–,–,–,–,–
COc1cc2nc(Cl)nc(NS(=O)(=O)C3CC3)c2cc1OC,–,–,–,–,–,–,Non-Toxic,inactive,inactive,inactive,inactive,inactive
COc1cc([C@@H]2c3cc4c(cc3[C@@H](O[C@@H]3O[C@@H]5CO[C@@H](C)O[C@H]5[C@H](O)[C@H]3O)[C@H]3COC(=O)[C@H]23)OCO4)cc(OC)c1O [ETOPOSIDE],4.42,3.84,2.89,6.17,5.12,49.3,–,–,–,–,–,–
COc1cc2nc(N3CCCC3)nc(NS(=O)(=O)c3cccc(C(F)(F)F)c3)c2cc1OC,15.9,22.1,16,65.1,78,–,Non-Toxic,–,–,–,–,–
COc1cc2nc(Cl)nc(NS(=O)(=O)c3ccc(C)cc3C)c2cc1OC,40.4,25.8,65.1,47.8,49,73.1,–,–,–,–,–,–
COc1cc2nc(N3CCCC3)nc(NS(=O)(=O)C3CC3)c2cc1OC,9.13,17.6,6.43,11.1,10.2,66.6,–,–,–,–,–,–
